The results in this text go back to patent US20140343000A1 (priority 2011, published 2014).

The first experiment has as its system recombinant NL4-3 virus (Renilla luciferase in nef, Gag P373S; NLRluc) in MT-2 cells. Nature of the experiment: whole plant or invertebrate. It is filed as cell-based, HIV. As to conditions: Renilla, NL43, luciferase activity in cells infected for 4-5 days with NLRluc recombinants, serial dilutions of inhibitor; class symbols (key in Table 1); read-out: EC50. On the procedure: MT-2 cells and 293T cells were obtained from the NIH AIDS Research and Reference Reagent Program. MT-2 cells were propagated in RPMI 1640 media supplemented with 10% heat inactivated fetal bovine serum, […]. The 293T cells were propagated in DMEM media supplemented with 10% heat inactivated fetal bovine serum (FBS), 100 units/ml penicillin G and 100 μg/ml streptomycin. The proviral DNA clone of NL4-3 was obtained from the NIH AIDS Research and Reference Reagent Program. A recombinant NL4-3 virus, in which a section of the nef gene from NL4-3 was replaced with the Renilla luciferase gene, was used as a reference virus. In addition, residue Gag P373 was converted to P373S. Briefly, the recombinant virus was prepared by transfection of the altered proviral clone of NL4-3. Transfections were performed in 293T cells using LipofectAMINE PLUS from Invitrogen (Carlsbad, Calif.), according to manufacturer's instruction. The virus was titered in MT-2 cells using luciferase enzyme activity as a marker. Luciferase was quantitated using the Dual Luciferase kit from Promega (Madison, Wis.), with modifications to the manufacturer's protocol. The diluted Passive Lysis solution was pre-mixed with the re-suspended Luciferase Assay Reagent and the re-suspended Stop & Glo Substrate (2:1:1 ratio). Fifty (50) μL of the mixture was added to each aspirated well on assay plates and luciferase activity was measured immediately on a Wallac TriLux (Perkin-Elmer). Antiviral activities of inhibitors toward the recombinant virus were quantified by measuring luciferase activity in cells infected for 4-5 days with NLRluc recombinants in the presence serial dilutions of the inhibitor. Table 1 is the key for the data in Table 2.
The EC50 is the concentration needed to bring the measured effect to its halfway point. Turning to `C=C(C)[C@@H]1CC[C@]2(NC(=O)N[C@@H](C)C(=O)O)CC[C@]3(C)[C@H](CC[C@@H]4[C@@]5(C)CC=C(c6ccc(C(=O)O)cc6)C(C)(C)[C@@H]5CC[C@]43C)[C@@H]12` [Example 17, 4-((1R,3aS,5aR,5bR,7aR,11aS,11bR,13aR,13bR)-3a-(3-((S)-1-carboxyethyl)ureido)-5a,5b,8,8,11a-pentamethyl-1-(prop-1-en-2-yl)-2,3,3a,4,5,5a,5b,6,7,7a,8,11,11a,11b,12,13,13a,13b-octadecahydro-1H-cyclopenta[a]chrysen-9-yl)benzoic acid], the EC50 was less than 100 nM. The same measure, in the same setting: with `C=C(C)[C@@H]1CC[C@]2(NC(=O)N[C@H](C)C(=O)O)CC[C@]3(C)[C@H](CC[C@@H]4[C@@]5(C)CC=C(c6ccc(C(=O)O)cc6)C(C)(C)[C@@H]5CC[C@]43C)[C@@H]12` [Example 19, 4-((1R,3aS,5aR,5bR,7aR,11aS,11bR,13aR,13bR)-3a-(3-((R)-1-carboxyethyl)ureido)-5a,5b,8,8,11a-pentamethyl-1-(prop-1-en-2-yl)-2,3,3a,4,5,5a,5b,6,7,7a,8,11,11a,11b,12,13,13a,13b-octadecahydro-1H-cyclopenta[a]chrysen-9-yl)benzoic acid] the figure was less than 100 nM. Same read-out and setting: for `C=C(C)[C@@H]1CC[C@]2(NC(=O)NCCN3CCS(=O)(=O)CC3)CC[C@]3(C)[C@H](CC[C@@H]4[C@@]5(C)CC=C(c6ccc(C(=O)O)cc6)C(C)(C)[C@@H]5CC[C@]43C)[C@@H]12` [Example 21, 4-((1R,3aS,5aR,5bR,7aR,11aS,11bR,13aR,13bR)-3a-(((2-(1,1-dioxido-4-thiomorpholinyl)ethyl)carbamoyl)amino)-1-isopropenyl-5a,5b,8,8,11a-pentamethyl-2,3,3a,4,5,5a,5b,6,7,7a,8,11,11a,11b,12,13,13a,13b-octadecahydro-1H-cyclopenta[a]chrysen-9-yl)benzoic acid] the value was less than 100 nM. On the same count and under the same terms, with `C=C(C)[C@@H]1CC[C@]2(NC(=O)NCCCN3CCS(=O)(=O)CC3)CC[C@]3(C)[C@H](CC[C@@H]4[C@@]5(C)CC=C(c6ccc(C(=O)O)cc6)C(C)(C)[C@@H]5CC[C@]43C)[C@@H]12` [Example 22, 4-((1R,3aS,5aR,5bR,7aR,11aS,11bR,13aR,13bR)-3a-(((3-(1,1-dioxido-4-thiomorpholinyl)propyl)carbamoyl)amino)-1-isopropenyl-5a,5b,8,8,11a-pentamethyl-2,3,3a,4,5,5a,5b,6,7,7a,8,11,11a,11b,12,13,13a,13b-octadecahydro-1H-cyclopenta[a]chrysen-9-yl)benzoic acid] the figure was less than 100 nM; with `C=C(C)[C@@H]1CC[C@]2(NC(=O)NCCN(C)CCO)CC[C@]3(C)[C@H](CC[C@@H]4[C@@]5(C)CC=C(c6ccc(C(=O)O)cc6)C(C)(C)[C@@H]5CC[C@]43C)[C@@H]12` [Example 23, 4-((1R,3aS,5aR,5bR,7aR,11aS,11bR,13aR,13bR)-3a-(3-(2-((2-hydroxyethyl)(methyl)amino)ethyl)ureido)-5a,5b,8,8,11a-pentamethyl-1-(prop-1-en-2-yl)-2,3,3a,4,5,5a,5b,6,7,7a,8,11,11a,11b,12,13,13a,13b-octadecahydro-1H-cyclopenta[a]chrysen-9-yl)benzoic acid], less than 100 nM; with `C=C(C)[C@@H]1CC[C@]2(NC(=O)N(C)CCN(C)C)CC[C@]3(C)[C@H](CC[C@@H]4[C@@]5(C)CC=C(c6ccc(C(=O)O)cc6)C(C)(C)[C@@H]5CC[C@]43C)[C@@H]12` [Example 24, 4-((1R,3aS,5aR,5bR,7aR,11aS,11bR,13aR,13bR)-3a-(3-(2-(dimethylamino)ethyl)-3-methylureido)-5a,5b,8,8,11a-pentamethyl-1-(prop-1-en-2-yl)-2,3,3a,4,5,5a,5b,6,7,7a,8,11,11a,11b,12,13,13a,13b-octadecahydro-1H-cyclopenta[a]chrysen-9-yl)benzoic acid], less than 100 nM. Take `C=C(C)[C@@H]1CC[C@]2(NC(=O)N(C)CCn3ccnc3)CC[C@]3(C)[C@H](CC[C@@H]4[C@@]5(C)CC=C(c6ccc(C(=O)O)cc6)C(C)(C)[C@@H]5CC[C@]43C)[C@@H]12` [Example 25, 4-((1R,3aS,5aR,5bR,7aR,11aS,11bR,13aR,13bR)-3a-(3-(2-(1H-imidazol-1-yl)ethyl)-3-methylureido)-5a,5b,8,8,11a-pentamethyl-1-(prop-1-en-2-yl)-2,3,3a,4,5,5a,5b,6,7,7a,8,11,11a,11b,12,13,13a,13b-octadecahydro-1H-cyclopenta[a]chrysen-9-yl)benzoic acid]: the half-maximal effective concentration (EC50) was less than 100 nM.

Consider `C=C(C)[C@@H]1CC[C@]2(NC(=O)NCCNC(C)=O)CC[C@]3(C)[C@H](CC[C@@H]4[C@@]5(C)CC=C(c6ccc(C(=O)O)cc6)C(C)(C)[C@@H]5CC[C@]43C)[C@@H]12` [Example 26, 4-((1R,3aS,5aR,5bR,7aR,11aS,11bR,13aR,13bR)-3a-(3-(2-acetamidoethyl)ureido)-5a,5b,8,8,11a-pentamethyl-1-(prop-1-en-2-yl)-2,3,3a,4,5,5a,5b,6,7,7a,8,11,11a,11b,12,13,13a,13b-octadecahydro-1H-cyclopenta[a]chrysen-9-yl)benzoic acid], for which the EC50 was less than 100 nM. Still for that read-out and setting: for `C=C(C)[C@@H]1CC[C@]2(NC(=O)NCCN3CCCCC3=O)CC[C@]3(C)[C@H](CC[C@@H]4[C@@]5(C)CC=C(c6ccc(C(=O)O)cc6)C(C)(C)[C@@H]5CC[C@]43C)[C@@H]12` [Example 27, 4-((1R,3aS,5aR,5bR,7aR,11aS,11bR,13aR,13bR)-5a,5b,8,8,11a-pentamethyl-3a-(3-(2-(2-oxopiperidin-1-yl)ethyl)ureido)-1-(prop-1-en-2-yl)-2,3,3a,4,5,5a,5b,6,7,7a,8,11,11a,11b,12,13,13a,13b-octadecahydro-1H-cyclopenta[a]chrysen-9-yl)benzoic acid] the value was less than 100 nM.

Still in this experiment, the particulars now being: Renilla, NL43, luciferase activity in cells infected for 4-5 days with NLRluc recombinants, serial dilutions of inhibitor; numeric values; read-out: EC50.
Turning to `C=C(C)[C@@H]1CC[C@]2(NC(=O)N[C@@H](CO)C(=O)O)CC[C@]3(C)[C@H](CC[C@@H]4[C@@]5(C)CC=C(c6ccc(C(=O)O)cc6)C(C)(C)[C@@H]5CC[C@]43C)[C@@H]12` [Example 18, 4-((1R,3aS,5aR,5bR,7aR,11aS,11bR,13aR,13bR)-3a-(3-((S)-1-carboxy-2-hydroxyethyl)ureido)-5a,5b,8,8,11a-pentamethyl-1-(prop-1-en-2-yl)-2,3,3a,4,5,5a,5b,6,7,7a,8,11,11a,11b,12,13,13a,13b-octadecahydro-1H-cyclopenta[a]chrysen-9-yl)benzoic acid], the EC50 amounted to 250 nM. On the same count and under the same terms, with `C=C(C)[C@@H]1CC[C@]2(NC(=O)N[C@H](CO)C(=O)O)CC[C@]3(C)[C@H](CC[C@@H]4[C@@]5(C)CC=C(c6ccc(C(=O)O)cc6)C(C)(C)[C@@H]5CC[C@]43C)[C@@H]12` [Example 20, 4-((1R,3aS,5aR,5bR,7aR,11aS,11bR,13aR,13bR)-3a-(3-((R)-1-carboxy-2-hydroxyethyl)ureido)-5a,5b,8,8,11a-pentamethyl-1-(prop-1-en-2-yl)-2,3,3a,4,5,5a,5b,6,7,7a,8,11,11a,11b,12,13,13a,13b-octadecahydro-1H-cyclopenta[a]chrysen-9-yl)benzoic acid] the figure was 400 nM; with `C=C(C)[C@@H]1CC[C@]2(NC(=O)NCCN3CCCC3=O)CC[C@]3(C)[C@H](CC[C@@H]4[C@@]5(C)CC=C(c6ccc(C(=O)O)cc6)C(C)(C)[C@@H]5CC[C@]43C)[C@@H]12` [Example 28, 4-((1R,3aS,5aR,5bR,7aR,11aS,11bR,13aR,13bR)-5a,5b,8,8,11a-pentamethyl-3a-(3-(2-(2-oxopyrrolidin-1-yl)ethyl)ureido)-1-(prop-1-en-2-yl)-2,3,3a,4,5,5a,5b,6,7,7a,8,11,11a,11b,12,13,13a,13b-octadecahydro-1H-cyclopenta[a]chrysen-9-yl)benzoic acid], 4 nM.

As for `C=C(C)[C@@H]1CC[C@]2(NC(=O)NCCCN3CCCC3=O)CC[C@]3(C)[C@H](CC[C@@H]4[C@@]5(C)CC=C(c6ccc(C(=O)O)cc6)C(C)(C)[C@@H]5CC[C@]43C)[C@@H]12` [Example 29, 4-((1R,3aS,5aR,5bR,7aR,11aS,11bR,13aR,13bR)-5a,5b,8,8,11a-pentamethyl-3a-(3-(3-(2-oxopyrrolidin-1-yl)propyl)ureido)-1-(prop-1-en-2-yl)-2,3,3a,4,5,5a,5b,6,7,7a,8,11,11a,11b,12,13,13a,13b-octadecahydro-1H-cyclopenta[a]chrysen-9-yl)benzoic acid], the EC50 was determined as 10 nM.
